Results from patent US20140090094A1, “MODULATORS OF SLC22A7” (BAYER INTELLECTUAL PROPERTY GmbH, priority 2011, published 2014).
Values joined by “and” are separate entries in the source; they are usually repeats but may differ in a detail not shown here. Equal entries are not always repeated.

Tests used:
[1] = target: T1, OAT2r (Rattus norvegicus, UniProt Q5RLM2); assay: intracellular glutamate content of 293 cells expressing OAT2r versus uninduced control cells; assay type: cell-based; conditions: n=4
T1 construct: expressed in transfected cells
T1 sequence (Q5RLM2 1-535): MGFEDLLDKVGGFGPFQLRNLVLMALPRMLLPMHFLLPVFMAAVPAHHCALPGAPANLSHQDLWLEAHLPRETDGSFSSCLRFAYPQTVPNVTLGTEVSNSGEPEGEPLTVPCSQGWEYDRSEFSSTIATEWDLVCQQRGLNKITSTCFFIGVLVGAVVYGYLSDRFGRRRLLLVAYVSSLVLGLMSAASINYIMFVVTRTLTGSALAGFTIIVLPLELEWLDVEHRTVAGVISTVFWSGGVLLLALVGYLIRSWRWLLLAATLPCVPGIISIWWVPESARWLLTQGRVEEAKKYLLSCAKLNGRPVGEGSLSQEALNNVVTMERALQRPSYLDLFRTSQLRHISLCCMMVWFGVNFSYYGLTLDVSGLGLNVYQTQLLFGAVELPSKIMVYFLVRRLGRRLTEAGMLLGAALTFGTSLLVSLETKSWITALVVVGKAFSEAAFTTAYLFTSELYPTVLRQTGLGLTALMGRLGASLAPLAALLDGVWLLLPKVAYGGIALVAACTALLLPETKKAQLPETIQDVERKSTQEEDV

[2] = cited from earlier work
[3] = target: T1, OAT2r; assay: 24 h accumulation in lysates of OAT2r-expressing versus control cells (LC-MS/MS); assay type: cell-based; conditions: 24 h incubation, compound at 100 μmol/l
Protocol: (§1) A substrate search by LC-MS difference shading was performed with 293 cells stably transfected to express OAT2 from rat. […] To verify that trigonelline is directly transported by OAT2 and not just increased indirectly, initial rates of uptake (1 min, 37° C.) of trigonelline (10 μmol/l) were determined by LC-MS/MS.
With trigonelline as substrate lead, compounds wholly or partly related in structure were analyzed for transport by OAT2 from rat.
After centrifugation (1 min, 16000×g, 20° C.) of thawed lysates, 100 μl of the supernatant was mixed with either 10 μl unlabeled MPP+ iodide (0.5 ng/μl) or biphenyl-4-carboxylic acid (Sigma-Aldrich) as internal standard. Of this mixture, […] were analyzed by LCMS/MS on a triple quadrupole mass spectrometer (4000 Q TRAP, Applied Biosystems, Darmstadt, Germany). […] Atmospheric pressure ionization with positive or negative electrospray was used. For quantification (scan time 150 ms), the optimal collision energy for argon-induced fragmentation in the second quadrupole was determined for each analyte. […] Linear calibration curves were constructed from at least six standards which were prepared using control cell lysates as solvent. Sample analyte content was calculated from the analyte response ratio and the slope of the calibration curve, obtained by linear regression. With LC-MS quantitation, solute content of cell lysates was determined for 4 conditions ([…]): a) transporter expression on, uptake buffer; b) expression off, uptake buffer; c) expression on, substrate in uptake buffer; d) expression off, substrate in uptake buffer. Acute uptake mediated by heterologously expressed carrier was then calculated as (c−a)−(d−b). This approach takes into account endogenous solute content and non-specific uptake. Protein was measured by the BCA assay (Pierce) with bovine serum albumin as standard. The protein content of MS samples was estimated from 3 matched cell dishes.

[4] = target: OAT2h splice variant E131_W132insSQ (Homo sapiens, UniProt Q9Y694); conditions: initial rate 1 min, 37° C., 10 μmol/l, LC-MS/MS, uptake buffer in the expression period
Protocol: as §1
For measurement of solute uptake, cells were grown in surface culture on 60 mm polystyrol dishes (Nunclon 150288, Nunc, Roskilde, Denmark) precoated with 0.1 g/l poly-L-ornithine in 0.15 M boric acid-NaOH, pH 8.4. Cells were used for uptake experiments at a confluence of at least 70%. Uptake was measured at 37° C. […] Radioactivity was determined, after cell lysis with 0.1% v/v Triton X-100 in 5 mmol/l TRIS-HCl pH 7.4, by liquid scintillation counting. […]
After centrifugation (1 min, 16000×g, 20° C.) of thawed lysates, 100 μl of the supernatant was mixed with either 10 μl unlabeled MPP+ iodide (0.5 ng/μl) or biphenyl-4-carboxylic acid (Sigma-Aldrich) as internal standard. Of this mixture, […] were analyzed by LCMS/MS on a triple quadrupole mass spectrometer (4000 Q TRAP, Applied Biosystems, Darmstadt, Germany). […] For quantification (scan time 150 ms), the optimal collision energy for argon-induced fragmentation in the second quadrupole was determined for each analyte. […] Acute uptake mediated by heterologously expressed carrier was then calculated as (c−a)−(d−b). […]

[5] = target: OAT2h splice variant (Homo sapiens, UniProt Q9Y694); conditions: 24 h incubation, 100 μmol/l in uptake buffer
Protocol: as §1
After centrifugation (1 min, 16000×g, 20° C.) of thawed lysates, 100 μl of the supernatant was mixed with either 10 μl unlabeled MPP+ iodide (0.5 ng/μl) or biphenyl-4-carboxylic acid (Sigma-Aldrich) as internal standard. Of this mixture, […] were analyzed by LCMS/MS on a triple quadrupole mass spectrometer (4000 Q TRAP, Applied Biosystems, Darmstadt, Germany). […] For quantification (scan time 150 ms), the optimal collision energy for argon-induced fragmentation in the second quadrupole was determined for each analyte. […] Sample analyte content was calculated from the analyte response ratio and the slope of the calibration curve, obtained by linear regression. With LC-MS quantitation, solute content of cell lysates was determined for 4 conditions (paired dishes, incubation time 1 min): a) transporter expression on, uptake buffer; b) expression off, uptake buffer; c) expression on, substrate in uptake buffer; d) expression off, substrate in uptake buffer. Acute uptake mediated by heterologously expressed carrier was then calculated as (c−a)−(d−b). […]

N[C@@H](CCC(=O)O)C(=O)O [glutamate]
intracellular glutamate content versus uninduced control cells (factor f) [1]: 0.55±0.11

O=C(O)c1cc(=O)[nH]c(=O)[nH]1 [orotic acid]
pKa [2]: ≈ 2.4

C[n+]1cccc(C(=O)[O-])c1 [trigonelline]
increase in OAT2r cell lysates versus control cells (factor f) [3]: 8.1 and 4.7 | carrier-mediated clearance [4]: 2.5±0.9 μl min-1 mg protein-1 | increase in cell lysates versus control cells (factor f) [5]: 3.9
